Source: patent US7713527B2, “Specific avian egg antibodies for disease prevention and improvement of growth performance” (priority 2006, dated 2010)
Read-outs that look alike come from different tables or passages of the source.

Type: in vivo
Settings: Mecadox 1.0% in diet, no SDEP
Description: Thirty-six 18 day old piglets (6.3±0.2 kg) were allocated to six treatment groups, blocked by weight and given ad libitum access to feed and water (n=6/group)
Each group was administered varying doses of SDEP containing antibodies to ETEC K88 and/or antibiotics for 28 days (Table 1).
Animals were weighed at the end of phase 1 (14 d) and phase 2 (28 d), and average daily gains were calculated.
Thirty six crossbred (GAP Genetics, Winnipeg, MB, Canada) 18-d old pigs with an initial weight of 6.3±0.2 kg were allotted into six treatment groups: (1) control; (2) 0.1% SDEP; (3) 0.1% SDEP+antibiotics; (4) control+antibiotics; (5) 0.4% SDEP; (6) 0.4% SDEP+antibiotics.
Pigs were housed in stainless steel pens equipped with nipple waterers, stainless steel feeders, and plastic-coated expanded metal floors. The pens were located in an environmentally regulated building maintained at 25±2° C. with a 12-h light/dark cycle. Body weight and feed consumption were recorded after every phase and ad libitum access to feed and water was provided during the entire period of the study.
There were three pens per treatment and two pigs per pen. The pigs were fed a standard pig starter diet in phases 1 (Table 3) and 2 (Table 4). The diets were with or without spray-dried egg powder (SDEP) containing E. Coli K-88 antibodies and with or without antibiotics. The diets were fed in two phases. Both phases were fed for 14 days each. Pigs were allotted to treatments based on weaned weights and dam. Feed and water was available always. Pigs and feeders were weighed at the end of each phase to determine weight gains and feed disappearance.

With `COC(=O)N/N=C/c1c[n+]([O-])c2ccccc2[n+]1[O-]` [Mecadox] the “Avg. daily gain / ADG” value (phase 1 (days 0-14)) was 240 g, the “Avg. daily intake / ADFI” value (phase 1 (days 0-14)) was 328 g and the Mean feed/gain (phase 1 (days 0-14)) was 1.63. For the same molecule, the “Mean final weight / End Weight” value (phase 1 (days 0-14)) was 9.6 kg, the “G:F” value (phase 1) was 0.72 and the “Avg. daily gain / ADG” value (phase 2 (days 14-28)) was 421 g. For the same molecule, the “Avg. daily intake / ADFI” value (phase 2 (days 14-28)) was 532 g, the Mean feed/gain (phase 2 (days 14-28)) was 1.35 and the “Mean final weight / End Weight” value (phase 2 (days 14-28)) was 15.4 kg. The “G:F” value (phase 2) was 0.74.
